Test results: ChEMBL document CHEMBL2086274, “Synthesis, biological evaluation, and molecular docking of N-{3-[3-(9-methyl-9H-carbazol-3-yl)-acryloyl]-phenyl}-benzamide/amide derivatives as xanthine oxidase and tyrosinase inhibitors” (Bioorg Med Chem, 2012)

What was measured:
[1] = target: T1, Tyrosinase (Mus musculus) (UniProt P11344); assay: Inhibition of tyrosinase in mouse B16F10 cells assessed as reduction of melanin production at 20 ug/ml after 72 hrs; type: cell-based; details: B16-F10
T1 sequence (whole entry): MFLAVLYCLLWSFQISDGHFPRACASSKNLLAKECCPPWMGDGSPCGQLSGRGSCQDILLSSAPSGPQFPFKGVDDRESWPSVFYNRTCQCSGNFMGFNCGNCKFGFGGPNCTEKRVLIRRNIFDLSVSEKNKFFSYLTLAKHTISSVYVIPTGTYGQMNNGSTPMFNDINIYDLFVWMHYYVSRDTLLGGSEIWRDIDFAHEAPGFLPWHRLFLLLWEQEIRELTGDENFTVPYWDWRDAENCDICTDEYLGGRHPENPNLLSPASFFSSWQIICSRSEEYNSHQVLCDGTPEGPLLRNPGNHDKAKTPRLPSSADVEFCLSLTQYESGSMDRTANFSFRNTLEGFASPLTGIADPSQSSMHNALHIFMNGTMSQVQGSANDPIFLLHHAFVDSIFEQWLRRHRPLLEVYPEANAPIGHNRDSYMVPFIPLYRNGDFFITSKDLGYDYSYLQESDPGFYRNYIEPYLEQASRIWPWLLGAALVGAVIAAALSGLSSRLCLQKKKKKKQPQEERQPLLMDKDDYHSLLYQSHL

[2] = Cytotoxicity against mouse B16F10 cells assessed as cell viability at 20 ug/ml after 76 hrs by MTT assay; type: cell-based, B16-F10; details: read-out: Activity
[3] = target: Xanthine dehydrogenase/oxidase (Bos taurus, UniProt P80457)
Description: Inhibition of bovine milk XO assessed as decrease in uric acid formation after 5 mins by UV-spectrophotometric analysis

Tyrosinase [4] = target: T2, Tyrosinase (Agaricus bisporus, UniProt O42713)
T2 sequence (O42713 whole entry): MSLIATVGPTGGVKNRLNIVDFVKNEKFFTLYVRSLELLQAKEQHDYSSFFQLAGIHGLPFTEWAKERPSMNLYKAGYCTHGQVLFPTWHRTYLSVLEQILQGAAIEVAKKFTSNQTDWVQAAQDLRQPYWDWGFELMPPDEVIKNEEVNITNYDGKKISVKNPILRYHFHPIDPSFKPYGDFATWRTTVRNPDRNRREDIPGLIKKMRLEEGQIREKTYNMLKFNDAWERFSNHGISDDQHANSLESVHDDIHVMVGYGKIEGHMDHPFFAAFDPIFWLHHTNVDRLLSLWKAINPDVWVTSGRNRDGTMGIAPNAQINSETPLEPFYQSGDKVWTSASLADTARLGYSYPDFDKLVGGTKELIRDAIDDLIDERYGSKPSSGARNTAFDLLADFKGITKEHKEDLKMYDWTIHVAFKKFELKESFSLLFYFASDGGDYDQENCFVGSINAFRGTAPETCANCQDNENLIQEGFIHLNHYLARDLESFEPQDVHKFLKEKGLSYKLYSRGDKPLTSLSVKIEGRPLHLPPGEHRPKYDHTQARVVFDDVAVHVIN
Description: Inhibition of mushroom tyrosinase using L-tyrosine as substrate after 5 mins by UV-spectrophotometric analysis

Tyrosinase [5] = target: T2, Tyrosinase; remark: listed apart in the source
Description: Inhibition of mushroom tyrosinase using L-DOPA as substrate after 5 mins by UV-spectrophotometric analysis

Tyrosinase [6] = target: T2, Tyrosinase; assay: Competitive inhibition of mushroom tyrosinase using L-DOPA as substrate after 5 mins by Lineweaver-Burk plot analysis

Sequence of Xanthine dehydrogenase/oxidase (P80457 whole entry): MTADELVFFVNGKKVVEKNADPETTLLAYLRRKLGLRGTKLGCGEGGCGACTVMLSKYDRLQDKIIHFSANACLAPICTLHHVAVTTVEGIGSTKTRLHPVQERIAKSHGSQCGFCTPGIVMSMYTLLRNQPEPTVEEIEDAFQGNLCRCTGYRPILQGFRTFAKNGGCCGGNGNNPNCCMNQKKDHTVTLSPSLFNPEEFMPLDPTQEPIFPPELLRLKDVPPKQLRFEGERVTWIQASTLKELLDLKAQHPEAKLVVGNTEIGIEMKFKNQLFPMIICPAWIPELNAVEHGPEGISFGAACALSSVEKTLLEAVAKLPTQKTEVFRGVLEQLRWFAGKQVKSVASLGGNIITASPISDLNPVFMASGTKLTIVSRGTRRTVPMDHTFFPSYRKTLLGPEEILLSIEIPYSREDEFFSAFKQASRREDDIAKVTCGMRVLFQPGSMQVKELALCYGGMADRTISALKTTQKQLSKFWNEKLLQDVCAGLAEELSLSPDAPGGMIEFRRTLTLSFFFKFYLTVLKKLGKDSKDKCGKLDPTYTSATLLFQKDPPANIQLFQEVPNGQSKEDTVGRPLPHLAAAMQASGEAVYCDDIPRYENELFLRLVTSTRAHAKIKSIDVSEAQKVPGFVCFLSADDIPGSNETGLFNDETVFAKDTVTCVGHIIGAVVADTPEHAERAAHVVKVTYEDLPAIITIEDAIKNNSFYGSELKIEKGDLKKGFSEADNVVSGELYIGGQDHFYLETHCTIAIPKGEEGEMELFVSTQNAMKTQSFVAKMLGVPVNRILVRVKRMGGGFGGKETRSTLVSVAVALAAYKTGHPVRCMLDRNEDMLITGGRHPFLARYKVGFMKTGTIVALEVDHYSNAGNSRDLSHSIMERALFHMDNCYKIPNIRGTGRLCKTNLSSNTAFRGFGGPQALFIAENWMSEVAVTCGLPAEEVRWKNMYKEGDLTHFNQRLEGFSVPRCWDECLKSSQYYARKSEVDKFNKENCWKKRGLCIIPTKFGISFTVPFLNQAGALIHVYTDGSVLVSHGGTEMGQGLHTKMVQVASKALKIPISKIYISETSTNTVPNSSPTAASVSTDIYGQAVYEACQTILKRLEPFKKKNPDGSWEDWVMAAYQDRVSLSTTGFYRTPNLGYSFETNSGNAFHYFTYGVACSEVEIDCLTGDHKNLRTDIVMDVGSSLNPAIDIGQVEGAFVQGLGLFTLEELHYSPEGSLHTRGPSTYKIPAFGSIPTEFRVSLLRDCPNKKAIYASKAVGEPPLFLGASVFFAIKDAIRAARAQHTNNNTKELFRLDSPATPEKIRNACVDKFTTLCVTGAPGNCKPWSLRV

| Compound | inhibition [1] [%] | IC50 [3] [µM] | IC50 (Tyrosinase [4]) [µM] | IC50 (Tyrosinase [5]) [µM] | Ki (Tyrosinase [6]) [µM] | viability at 76 h, 20 ug/ml [2] [%] |
| --- | --- | --- | --- | --- | --- | --- |
| Cn1c2ccccc2c2cc(/C=C/C(=O)c3cccc(NC(=O)c4ccc(C(C)(C)C)cc4)c3)ccc21 | 11.6 | 57.1 | > 100 | > 100 | – | 84 |
| Cn1c2ccccc2c2cc(/C=C/C(=O)c3cccc(NC(=O)c4ccc(Cl)cc4)c3)ccc21 | 36.1 | 5.6 | 17.5 | 15.1 | – | 81.1 |
| Cn1c2ccccc2c2cc(/C=C/C(=O)c3cccc(NC(=O)c4cccc(C(F)(F)F)c4)c3)ccc21 | 30.1 | 5.1 | 65.2 | 75 | – | 80.1 |
| Cn1c2ccccc2c2cc(/C=C/C(=O)c3cccc(NC(=O)/C=C/c4ccccc4)c3)ccc21 | 15.9 | 5.1 | 85.2 | 78.2 | – | 81 |
| Cn1c2ccccc2c2cc(/C=C/C(=O)c3cccc(NC(=O)c4cccc(Cl)c4)c3)ccc21 | 29.4 | 4.4 | 48.1 | 56.5 | – | 80.5 |
| Cn1c2ccccc2c2cc(/C=C/C(=O)c3cccc(NC(=O)c4cccc(Br)c4)c3)ccc21 | 10.2 | 88.2 | > 100 | > 100 | – | 78.9 |
| Cn1c2ccccc2c2cc(/C=C/C(=O)c3cccc(NC(=O)c4cccc(F)c4)c3)ccc21 | 20.6 | 4.5 | 35.2 | 42 | – | 83.9 |
| Cn1c2ccccc2c2cc(/C=C/C(=O)c3cccc(NC(=O)c4ccc(F)cc4)c3)ccc21 | 24 | 25.8 | 15.1 | 16.5 | – | 88.7 |

The next lines start with results.

| inhibition [1] [%] | IC50 [3] [µM] | IC50 (Tyrosinase [4]) [µM] | IC50 (Tyrosinase [5]) [µM] | Ki (Tyrosinase [6]) [µM] | Compound | viability at 76 h, 20 ug/ml [2] [%] |
| --- | --- | --- | --- | --- | --- | --- |
| 25.4 | 5.3 | 15.1 | 15.2 | – | Cc1ccc(C(=O)Nc2cccc(C(=O)/C=C/c3ccc4c(c3)c3ccccc3n4C)c2)cc1 | 82.7 |
| 10.7 | > 100 | 46.5 | 60.3 | – | Cn1c2ccccc2c2cc(/C=C/C(=O)c3cccc(NC(=O)c4ccco4)c3)ccc21 | 86.6 |
| 21.7 | 20.7 | 35.2 | 29.3 | – | Cc1cccc(C(=O)Nc2cccc(C(=O)/C=C/c3ccc4c(c3)c3ccccc3n4C)c2)c1 | 83.6 |
| 8.1 | > 100 | > 100 | > 100 | – | Cc1ccccc1C(=O)Nc1cccc(C(=O)/C=C/c2ccc3c(c2)c2ccccc2n3C)c1 | 60.9 |
| 20.1 | 48.5 | 48.2 | 50.5 | – | Cn1c2ccccc2c2cc(/C=C/C(=O)c3cccc(N)c3)ccc21 | 76.4 |
| 42.5 | 42.7 | 14 | 15.1 | 11.8 | Cn1c2ccccc2c2cc(/C=C/C(=O)c3cccc(NC(=O)c4ccccc4)c3)ccc21 | 86.7 |
| 30 | 4.3 | 80.2 | 74.5 | – | Cn1c2ccccc2c2cc(/C=C/C(=O)c3cccc(NC(=O)C4CC4)c3)ccc21 | 79.5 |
| 12.8 | > 100 | 62.4 | 71.9 | – | Cn1c2ccccc2c2cc(/C=C/C(=O)c3cccc(NC(=O)c4cccs4)c3)ccc21 | 82.1 |
| 15.6 | > 100 | 80.2 | 77.5 | – | CC(=O)Nc1cccc(C(=O)/C=C/c2ccc3c(c2)c2ccccc2n3C)c1 | 80.6 |
| 9.7 | 30.3 | > 100 | > 100 | – | Cn1c2ccccc2c2cc(/C=C/C(=O)c3cccc(NC(=O)c4ccccc4Cl)c3)ccc21 | 72 |
| 40.5 | 79.5 | 18.2 | 15.2 | – | Cn1c2ccccc2c2cc(/C=C/C(=O)c3cccc(NC(=O)c4ccccc4F)c3)ccc21 | 84.5 |
